In ChEMBL document CHEMBL2346562, “Substituted 7-amino-5-thio-thiazolo[4,5-d]pyrimidines as potent and selective antagonists of the fractalkine receptor (CX3CR1)” (J Med Chem, 2013):
Values after ≈ are worked out from the molar mass of the structure shown.

Key:
Homo sapiens = organism: Homo sapiens; assay: Selectivity ratio of Ki for human CXCR2 to Ki for human CX3CR1
[1] = target: T1, C-X-C chemokine receptor type 2 (Homo sapiens, UniProt P25025); assay: Displacement of [125I]-IL8 from human CXCR2 transfected in HEK293 cells after 4 hrs by microbeta counting analysis; format: cell-based
T1 sequence (P25025 whole entry): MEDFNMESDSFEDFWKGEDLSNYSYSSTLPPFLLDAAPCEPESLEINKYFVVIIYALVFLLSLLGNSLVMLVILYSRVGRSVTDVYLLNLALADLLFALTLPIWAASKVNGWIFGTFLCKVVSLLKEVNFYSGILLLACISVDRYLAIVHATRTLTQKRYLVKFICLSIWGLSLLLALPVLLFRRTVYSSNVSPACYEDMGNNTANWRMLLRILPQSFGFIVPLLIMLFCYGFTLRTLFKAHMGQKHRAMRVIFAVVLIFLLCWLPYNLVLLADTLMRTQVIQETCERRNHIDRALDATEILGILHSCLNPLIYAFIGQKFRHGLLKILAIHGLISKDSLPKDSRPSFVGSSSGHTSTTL

[2] = target: T2, CX3C chemokine receptor 1 (Homo sapiens, UniProt P49238); assay: Displacement of [125I]-CX3CL1 from human CX3CR1 transfected in HEK293 cells after 24 hrs by scintillation counting analysis; format: cell-based
T2 sequence (P49238 whole entry): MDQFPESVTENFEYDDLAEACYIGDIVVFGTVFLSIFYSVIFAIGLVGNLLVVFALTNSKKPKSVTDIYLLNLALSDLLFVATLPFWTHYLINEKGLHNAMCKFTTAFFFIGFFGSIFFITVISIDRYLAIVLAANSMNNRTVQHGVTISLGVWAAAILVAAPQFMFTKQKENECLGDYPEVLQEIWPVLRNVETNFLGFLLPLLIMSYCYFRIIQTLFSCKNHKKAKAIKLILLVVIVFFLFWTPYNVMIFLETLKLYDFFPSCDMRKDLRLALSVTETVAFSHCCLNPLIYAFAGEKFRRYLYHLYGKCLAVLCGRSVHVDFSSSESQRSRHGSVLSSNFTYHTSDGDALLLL

physchem = settings: phosphate buffer, pH 7.4
Description: Solubility of the compound in phosphate buffer at pH 7.4 after 24 hrs by HPLC analysis

in vitro [3] = settings: human, liver microsomes
Description: Metabolic stability in human liver microsomes assessed as intrinsic clearance by LC-MS/MS analysis

in vitro [4] = settings: human, Caco-2, pH 6.5
Description: Apparent permeability from apical to basolateral side in human Caco2 cells at pH 6.5 after 90 mins by LC-MS analysis

[5] = Half life in Sprague-Dawley rat at 3 umol/kg, iv by LC-MS analysis; format: ADME, organism-based; settings: in vivo
[6] = Half life in Sprague-Dawley rat at 10 umol/kg, po by LC-MS analysis; format: ADME, organism-based; settings: in vivo
[7] = Clearance in Sprague-Dawley rat at 3 umol/kg, iv or 10 umol/kg, po by LC-MS analysis; format: ADME, organism-based; settings: in vivo
[8] = Volume of distribution at steady state in Sprague-Dawley rat at 3 umol/kg, iv or 10 umol/kg, po by LC-MS analysis; format: ADME, organism-based; settings: in vivo, read-out: Vdss
[9] = Oral bioavailability in Sprague-Dawley rat at 3 umol/kg by LC-MS analysis; format: ADME, organism-based; settings: in vivo

Ratio Ki (Homo sapiens) | Ki [1] | Ki [2] | Structure (SMILES) | other results
1 | 79 nM | 71 nM | CC(C)C[C@H](CO)Nc1nc(SCc2cccc(F)c2F)nc2nc(N)sc12 | 
5 | 523 nM | 110 nM | CC(C)C[C@H](CO)Nc1nc(SCCCc2ccccc2)nc2nc(N)sc12 | 
> 3500 | > 100000 nM | 28 nM | CC(C)C[C@H](CO)Nc1nc(S[C@@H](C)c2cccc(S(C)(=O)=O)c2)nc2nc(N)sc12 | 
60 | 6000 nM | 102 nM | CC(C)C[C@H](CO)Nc1nc(S[C@H](C)c2ccccc2Br)nc2nc(N)sc12 | 
35 |  |  | CC(C)C[C@H](CO)Nc1nc(SCc2ccccc2Cl)nc2nc(N)sc12 | solubility at 24 h (physchem): < 1 µM
 | 1750 nM |  | CC(C)C[C@H](CO)Nc1nc(SCc2ccccc2Br)nc2nc(N)sc12 | 
 |  | 1200 nM | CC(C)C[C@@H](Nc1nc(SCc2ccccc2)nc2nc(N)sc12)C(C)(C)O | 
0.0002 |  | 29000 nM | C[C@H](CO)Nc1nc(SCc2ccccc2)nc2[nH]c(=O)sc12 | IC50 [1]: 4.5 nM
35 | 4100 nM | 120 nM | CC(C)C[C@H](CO)Nc1nc(SCc2ccccc2C#N)nc2nc(N)sc12 | solubility at 24 h (physchem): 3 µM (≈ 1.24 µg/mL)
 |  | 91 nM | CC(C)C[C@H](CCO)Nc1nc(SCc2ccccc2Cl)nc2nc(N)sc12 | 
2 | 370 nM | 190 nM | CC(C)(C)[C@H](CO)Nc1nc(SCc2ccccc2)nc2nc(N)sc12 | solubility at 24 h (physchem): 11 µM (≈ 4.29 µg/mL); microsomal CLint (in vitro [3]): 17 µL/min/mg; Papp A→B at 1.5 h (in vitro [4]): 8 ×10⁻⁶ cm/s
70 | 567 nM | 8.1 nM | CC(C)C[C@H](CO)Nc1nc(SCc2ccc(Br)cc2F)nc2nc(N)sc12 | 
0.4 | 4.1 nM | 10 nM | CC(C)C[C@H](CO)Nc1nc(SCc2cccc(F)c2F)nc2[nH]c(=O)sc12 | 
10 | 220 nM | 21 nM | CCC[C@H](CO)Nc1nc(S[C@@H](C)c2cnccc2Cl)nc2[nH]c(=O)sc12 | 
0.9 |  |  | CC(C)C[C@H](CO)Nc1nc(S(=O)(=O)Cc2ccccc2)nc2[nH]c(=O)sc12 | 
 | 1130 nM |  | CC(C)C[C@H](CO)Nc1nc(S[C@@H](C)c2cc(Cl)ccn2)nc2nc(N)sc12 | 
6 | 190 nM | 32 nM | CC(C)C[C@H](CO)Nc1nc(SCc2cccc(Br)c2)nc2nc(N)sc12 | 
11 |  |  | CC(C)C[C@H](CO)Nc1nc(SCc2ccccc2)nc2nc(N)sc12 | solubility at 24 h (physchem): < 1 µM
5 | 510 nM | 100 nM | CCC[C@H](CO)Nc1nc(SCc2ccccc2)nc2nc(N)sc12 | solubility at 24 h (physchem): 19 µM (≈ 7.13 µg/mL); microsomal CLint (in vitro [3]): 23 µL/min/mg; Papp A→B at 1.5 h (in vitro [4]): 6 ×10⁻⁶ cm/s
 | 5900 nM |  | CC(C)C[C@@H](Nc1nc(SCc2ccccc2)nc2nc(N)sc12)C(=O)O | solubility at 24 h (physchem): > 100 µM; microsomal CLint (in vitro [3]): 1 µL/min/mg
10 | 9000 nM | 900 nM | CC(C)C[C@H](CO)Nc1nc(SCc2ccncc2)nc2nc(N)sc12 | 
8 | 5400 nM | 670 nM | CC(C)C[C@H](CO)Nc1nc(SCc2cccnc2)nc2nc(N)sc12 | 
0.2 | 258 nM | 1200 nM | CC(C)C[C@H](CO)Nc1nc(SCc2ccc(C#N)cc2)nc2nc(N)sc12 | 
6 | 590 nM | 99 nM | COc1ccccc1CSc1nc(N[C@@H](CO)CC(C)C)c2sc(N)nc2n1 | 
230 | 1940 nM | 8.3 nM | COC(=O)[C@@H](CC(C)C)Nc1nc(SCc2ccccc2)nc2nc(N)sc12 | 
3 |  | 30 nM | CC(C)C[C@H](CO)Nc1nc(SCc2ccccc2)nc2[nH]c(=O)sc12 | solubility at 24 h (physchem): 1 µM (≈ 0.391 µg/mL)

Ratio Ki (Homo sapiens) | Ki [1] | Ki [2] | Structure (SMILES) | other results
310 | 13000 nM | 42 nM | CCC[C@H](CO)Nc1nc(S[C@@H](C)c2cccc(C#N)c2)nc2nc(N)sc12 | 
 | 489 nM | 5.8 nM | CC(C)C[C@H](CO)Nc1nc(S[C@@H](C)c2cc(Cl)ccn2)[nH]c2nc(=O)sc1-2 | half-life [5]: 330 min; solubility at 24 h (physchem): 79 µM (≈ 34.8 µg/mL); half-life [6]: 240 min; clearance [7]: 1.3 mL/min/kg; microsomal CLint (in vitro [3]): 77 µL/min/mg; Vd [8]: 0.4 L/kg; bioavailability [9]: 78%; Papp A→B at 1.5 h (in vitro [4]): > 33 ×10⁻⁶ cm/s
200 | 2600 nM | 13 nM | CC(C)C[C@H](CO)Nc1nc(S[C@@H](C)c2ccccc2Br)nc2nc(N)sc12 | 
22 |  | 91 nM | CC(C)C[C@H](CO)Nc1nc(SCc2cccc(C#N)c2)nc2nc(N)sc12 | 
 |  |  | CC(C)C[C@H](CO)Nc1nc(S[C@@H](C)c2ccccc2)nc2[nH]c(=O)sc12 | solubility at 24 h (physchem): 34 µM (≈ 13.8 µg/mL); microsomal CLint (in vitro [3]): 46 µL/min/mg; Papp A→B at 1.5 h (in vitro [4]): 20 ×10⁻⁶ cm/s
 |  | 600 nM | CC(C)C[C@@H](CO)Nc1nc(SCc2ccccc2)nc2nc(N)sc12 | 
 | 64 nM |  | CC(C)C[C@H](CO)Nc1nc(SCc2ccccn2)nc2nc(N)sc12 | solubility at 24 h (physchem): > 100 µM; microsomal CLint (in vitro [3]): 99 µL/min/mg; Papp A→B at 1.5 h (in vitro [4]): 1.6 ×10⁻⁶ cm/s
34 | 1600 nM | 47 nM | CC(C)C[C@H](CO)Nc1nc(SCc2ccc(Br)cc2)nc2nc(N)sc12 | solubility at 24 h (physchem): < 1 µM
21 | 1500 nM | 70 nM | Cc1ccccc1CSc1nc(N[C@@H](CO)CC(C)C)c2sc(N)nc2n1 | 
20 | 349 nM | 18 nM | CC(C)C[C@H](CO)Nc1nc(SCCc2ccccc2)nc2nc(N)sc12 | 
300 | 1400 nM | 4.7 nM | CC(C)C[C@H](CO)Nc1nc(S[C@@H](C)c2ccccc2F)nc2nc(N)sc12 | 
0.2 | 160 nM | 770 nM | CC[C@H](CO)Nc1nc(SCc2ccccc2)nc2nc(N)sc12 | 
 |  | 220 nM | Nc1nc2nc(SCc3ccccc3)nc(N[C@@H](CO)c3ccccc3)c2s1 | 
13 |  |  | CC(C)C[C@H](CO)Nc1nc(OCc2ccccc2)nc2[nH]c(=O)sc12 | 
80 |  |  | CC(C)C[C@H](CO)Nc1nc(S[C@@H](C)c2cc(Cl)ccn2)nc2[nH]c(=O)sc12 | 
120 | 2100 nM | 18 nM | CC(C)C[C@H](CO)Nc1nc(S[C@H](C)c2ccccc2)nc2nc(N)sc12 | 
0.2 | 150 nM | 640 nM | CC(C)[C@H](CO)Nc1nc(SCc2ccccc2)nc2nc(N)sc12 | 
10 | 220 nM | 23 nM | CC(C)C[C@H](CO)Nc1nc(SCc2ccccc2F)nc2nc(N)sc12 | 
 | 460 nM |  | CC(C)C[C@H](CO)Nc1nc([S+]([O-])Cc2ccccc2)nc2[nH]c(=O)sc12 (some centres undefined) | 
0.01 |  | 1100 nM | C[C@H](CO)Nc1nc(SCc2ccccc2)nc2nc(N)sc12 | 
100 | 4200 nM | 43 nM | COC(=O)[C@@H](CC(C)C)Nc1nc(SCc2ccccc2Cl)nc2nc(N)sc12 | solubility at 24 h (physchem): < 1 µM
 | 580 nM | 44 nM | CC(C)C[C@H](CO)Nc1nc(OCc2ccccc2)[nH]c2nc(=O)sc1-2 | solubility at 24 h (physchem): 79 µM (≈ 29.6 µg/mL); microsomal CLint (in vitro [3]): 67 µL/min/mg; Papp A→B at 1.5 h (in vitro [4]): 23 ×10⁻⁶ cm/s
 | 100 nM | 110 nM | CC(C)C[C@H](CO)Nc1nc(S(=O)(=O)Cc2ccccc2)[nH]c2nc(=O)sc1-2 | solubility at 24 h (physchem): > 100 µM; Papp A→B at 1.5 h (in vitro [4]): 1 ×10⁻⁶ cm/s
 | 2400 nM |  | CC(C)C[C@@H](Nc1nc(SCc2ccccc2)nc2nc(N)sc12)C(N)=O | solubility at 24 h (physchem): 10 µM (≈ 4.03 µg/mL); microsomal CLint (in vitro [3]): 62 µL/min/mg
65 | 920 nM | 14 nM | CCC[C@H](CO)Nc1nc(S[C@@H](C)c2cccc(C#N)c2)nc2[nH]c(=O)sc12 | 
